22 compounds from patent US11020397B2, “Compounds and their use for reducing uric acid levels” (Acquist LLC, priority 2016, dated 2021) can be followed below.

pIC50: −log10 of the molar value. Where two headings read alike, the source gives them in different places.

This assay deals with Xanthine oxidase (Homo sapiens (Human), UniProt P47989). The experiment in a line: Fluorescence-based xanthine oxidase activity assay. The class given is biochemical. To be noted: for IC50: unit nM, read-out: Xanthine Oxidase IC50; for Xanthine oxidase inhibition, verbal rating: compared to allopurinol.
Sequence of Xanthine oxidase (P47989 whole entry, species assumed): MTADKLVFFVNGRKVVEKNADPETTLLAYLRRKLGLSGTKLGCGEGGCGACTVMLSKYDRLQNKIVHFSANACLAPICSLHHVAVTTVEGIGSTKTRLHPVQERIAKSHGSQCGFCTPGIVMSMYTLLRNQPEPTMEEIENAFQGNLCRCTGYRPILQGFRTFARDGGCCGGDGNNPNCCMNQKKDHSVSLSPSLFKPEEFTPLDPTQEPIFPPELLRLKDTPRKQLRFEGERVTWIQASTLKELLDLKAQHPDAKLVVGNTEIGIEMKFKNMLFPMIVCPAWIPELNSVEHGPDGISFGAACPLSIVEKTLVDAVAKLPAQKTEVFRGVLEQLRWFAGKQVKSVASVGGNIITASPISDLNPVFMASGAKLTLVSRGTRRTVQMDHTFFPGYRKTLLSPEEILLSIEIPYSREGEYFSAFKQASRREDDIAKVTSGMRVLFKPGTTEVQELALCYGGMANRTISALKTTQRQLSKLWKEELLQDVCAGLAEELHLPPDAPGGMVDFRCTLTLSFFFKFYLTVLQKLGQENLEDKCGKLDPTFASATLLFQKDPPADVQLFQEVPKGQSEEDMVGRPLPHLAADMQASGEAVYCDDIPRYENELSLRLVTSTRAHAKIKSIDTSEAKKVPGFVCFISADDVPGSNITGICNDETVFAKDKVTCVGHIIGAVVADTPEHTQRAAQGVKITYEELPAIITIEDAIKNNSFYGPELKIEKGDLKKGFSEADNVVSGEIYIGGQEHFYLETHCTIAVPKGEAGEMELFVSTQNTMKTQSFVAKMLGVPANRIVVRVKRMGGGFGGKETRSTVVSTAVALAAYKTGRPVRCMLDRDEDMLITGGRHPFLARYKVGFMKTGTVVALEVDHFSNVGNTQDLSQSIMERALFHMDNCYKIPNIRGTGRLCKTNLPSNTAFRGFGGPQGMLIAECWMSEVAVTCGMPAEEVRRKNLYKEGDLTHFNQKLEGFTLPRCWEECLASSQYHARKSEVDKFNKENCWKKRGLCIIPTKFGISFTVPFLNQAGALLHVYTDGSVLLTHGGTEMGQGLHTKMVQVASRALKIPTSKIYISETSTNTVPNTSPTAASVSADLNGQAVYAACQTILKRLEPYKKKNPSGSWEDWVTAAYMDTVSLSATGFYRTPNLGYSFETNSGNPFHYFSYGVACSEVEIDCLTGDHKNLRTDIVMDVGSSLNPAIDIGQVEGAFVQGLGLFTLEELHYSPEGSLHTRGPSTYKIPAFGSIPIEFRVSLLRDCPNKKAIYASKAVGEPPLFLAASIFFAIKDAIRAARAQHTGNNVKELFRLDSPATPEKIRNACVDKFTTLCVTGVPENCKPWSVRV

As for `CSc1nc(O)c(C(=O)Nc2ccc(-c3c[nH]nn3)cc2OC(F)(F)F)c(=O)[nH]1` [Formula (II3), N-(4-(1H-1,2,3-triazol-4-yl)-2-(trifluoromethoxy)phenyl)-4-hydroxy-2-(methylthio)-6-oxo-1,6-dihydropyrimidine-5-carboxamide], the negative-log IC50 (pIC50) was 7.22. Take `CSc1nc(O)c(C(=O)Nc2ccc(-c3c[nH]nn3)cc2OC(F)F)c(=O)[nH]1` [Formula (II4), N-(2-(difluoromethoxy)-4-(1H-1,2,3-triazol-4-yl)phenyl)-4-hydroxy-2-(methylthio)-6-oxo-1,6-dihydropyrimidine-5-carboxamide]: the pIC50 is 7.22. On the same count and under the same terms, the figure for `CSc1nc(O)c(C(=O)Nc2ccc(-c3c[nH]nn3)cc2C#N)c(=O)[nH]1` [Formula (II5), N-(2-cyano-4-(1H-1,2,3-triazol-4-yl)phenyl)-4-hydroxy-2-(methylthio)-6-oxo-1,6-dihydropyrimidine-5-carboxamide] is 7.40. For the compound `CSc1nc(O)c(C(=O)Nc2ccc(-c3c[nH]nn3)c(C(F)(F)F)c2)c(=O)[nH]1` [Formula (II6), N-(4-(1H-1,2,3-Triazol-4-yl)-3-(trifluoromethyl)phenyl)-4-hydroxy-2-(methylthio)-6-oxo-1,6-dihydropyrimidine-5-carboxamide], the IC50 was above 10000 nM. The compound `CC(C)Sc1nc(O)c(C(=O)Nc2ccc(-c3c[nH]nn3)cc2C(F)(F)F)c(=O)[nH]1` [Formula (II7), N-(4-(1H-1,2,3-Triazol-5-yl)-2-(trifluoromethyl)phenyl)-4-hydroxy-2-(isopropyl-thio)-6-oxo-1,6-dihydropyrimidine-5-carboxamide] showed a negative-log IC50 (pIC50) of 7.15. Turning to `CSc1nc(O)c(C(=O)Nc2ncc(-c3c[nH]nn3)cc2C(F)(F)F)c(=O)[nH]1` [Formula (II8), N-(5-(1H-1,2,3-triazol-4-yl)-3-(trifluoromethyl)pyridin-2-yl)-4-hydroxy-2-(methylthio)-6-oxo-1,6-dihydropyrimidine-5-carboxamide], the pIC50 was 7.22. Still for that read-out and setting: the figure for `CSc1nc(O)c(C(=O)Nc2ccc3nc(-c4c[nH]nn4)ccc3c2)c(=O)[nH]1` [Formula (II10), N-(2-(1H-1,2,3-triazol-4-yl)quinolin-6-yl)-4-hydroxy-2-(methylthio)-6-oxo-1,6-dihydropyrimidine-5-carboxamide] is 6.72. `CSc1nc(O)c(C(=O)Nc2ccc(-c3c[nH]nn3)c(F)c2F)c(=O)[nH]1` [Formula (IIaa), N-(2,3-difluoro-4-(1H-1,2,3-triazol-4-yl)phenyl)-4,6-dihydroxy-2-(methylthio) pyrimidine-5-carboxamide] showed a pIC50 of 6.99. Compound `CN(C)CCSc1nc(O)c(C(=O)Nc2ccc(-c3c[nH]nn3)cc2F)c(=O)[nH]1` [Formula (IIbb), 2-((2-(dimethylamino)ethyl)thio)-N-(2-fluoro-4-(1H-1,2,3-triazol-4-yl)phenyl)-4-hydroxy-6-oxo-1,6-dihydropyrimidine-5-carboxamide] gave a negative logarithm of the IC50 (pIC50) of 6.69. For `CC(C)Sc1nc(O)c(C(=O)Nc2ccc(-c3c[nH]nn3)cc2)c(=O)[nH]1` [Formula (IIi), N-(4-(1H-1,2,3-triazol-5-yl)phenyl)-4-hydroxy-2-(isopropylthio)-6-oxo-1,6-dihydropyrimidine-5-carboxamide], the “Xanthine oxidase inhibition, verbal rating” value (“Xanthine oxidase inhibition” below) was “particularly potent inhibitors of xanthine oxidase compared to allopurinol” and the IC50 is below 20 nM.

Take `CSc1nc(O)c(C(=O)Nc2ccc(-c3c[nH]nn3)nc2)c(=O)[nH]1` [Formula (IIii), N-(6-(1H-1,2,3-triazol-4-yl)pyridin-3-yl)-4-hydroxy-2-(methylthio)-6-oxo-1,6-dihydropyrimidine-5-carboxamide]: the pIC50 is 6.42 and the “Xanthine oxidase inhibition” value was “particularly potent inhibitors of xanthine oxidase compared to allopurinol”. In the case of `O=C(Nc1ccc(-c2c[nH]nn2)cc1)c1c(O)nc(SC(F)(F)F)[nH]c1=O` [Formula (IIj)], the IC50 is above 300000 nM.

For `CCSc1nc(O)c(C(=O)Nc2ccc(-c3c[nH]nn3)cc2)c(=O)[nH]1` [Formula (IIl), N-(4-(1H-1,2,3-triazol-4-yl)phenyl)-2-(ethylthio)-4-hydroxy-6-oxo-1,6-dihydropyrimidine-5-carboxamide], the “Xanthine oxidase inhibition” value is recorded as “particularly potent inhibitors of xanthine oxidase compared to allopurinol” and the 50% inhibitory concentration (IC50) is below 20 nM. The compound `O=C(Nc1ccc(-c2c[nH]nn2)cc1)c1c(O)nc(SCC2CC2)[nH]c1=O` [Formula (IIo), N-(4-(1H-1,2,3-triazol-4-yl)phenyl)-2-((cyclopropylmethyl)thio)-4,6-dioxo-1,4,5,6-tetrahydropyrimidine-5-carboxamide] had a pIC50 of 5.94.

Turning to `CCSc1nc(O)c(C(=O)Nc2ccc(-c3nn[nH]n3)cc2)c(=O)[nH]1` [Formula (IIp), N-(4-(1H-tetrazol-5-yl)phenyl)-2-(ethylthio)-4-hydroxy-6-oxo-1,6-dihydropyrimidine-5-carboxamide], the negative logarithm of the IC50 (pIC50) was 6.70 and the “Xanthine oxidase inhibition” value was “particularly potent inhibitors of xanthine oxidase compared to allopurinol”. In the same order, the values of `CC(C)CSc1nc(O)c(C(=O)Nc2ccc(-c3c[nH]nn3)cc2)c(=O)[nH]1` [Formula (IIq), N-(4-(1H-1,2,3-triazol-4-yl)phenyl)-4-hydroxy-2-(isobutylthio)-6-oxo-1,6-dihydropyrimidine-5-carboxamide] are 7.40 and “particularly potent inhibitors of xanthine oxidase compared to allopurinol”. Regarding `CSc1nc(O)c(C(=O)Nc2ccc(-c3c[nH]nn3)c(F)c2)c(=O)[nH]1` [Formula (IIr), N-(3-Fluoro-4-(1H-1,2,3-triazol-4-yl)phenyl)-4-hydroxy-2-(methylthio)-6-oxo-1,6-dihydropyrimidine-5-carboxamide], the pIC50 is 6.68 and the “Xanthine oxidase inhibition” value is “particularly potent inhibitors of xanthine oxidase compared to allopurinol”.

Take `CSc1nc(O)c(C(=O)Nc2ccc(-c3c[nH]nn3)cc2F)c(=O)[nH]1` [Formula (IIs), N-(2-Fluoro-4-(1H-1,2,3-triazol-4-yl)phenyl)-4-hydroxy-2-(methylthio)-6-oxo-1,6-dihydropyrimidine-5-carboxamide]: the negative-log IC50 (pIC50) was 6.92 and the “Xanthine oxidase inhibition” value is given as “particularly potent inhibitors of xanthine oxidase compared to allopurinol”. Consider `CSc1nc(O)c(C(=O)Nc2c(F)cc(-c3c[nH]nn3)cc2F)c(=O)[nH]1` [Formula (IIt), N-(2,6-Difluoro-4-(1H-1,2,3-triazol-4-yl)phenyl)-4-hydroxy-2-(methylthio)-6-oxo-1,6-dihydropyrimidine-5-carboxamide], for which the negative-log IC50 (pIC50) is 6.74 and the “Xanthine oxidase inhibition” value was “particularly potent inhibitors of xanthine oxidase compared to allopurinol”. `CC(C)Sc1nc(O)c(C(=O)Nc2ccc(-c3c[nH]nn3)cc2F)c(=O)[nH]1` [Formula (IIv), N-(2-Fluoro-4-(1H-1,2,3-triazol-4-yl)phenyl)-4-hydroxy-2-(isopropylthio)-6-oxo-1,6-dihydropyrimidine-5-carboxamide] had a pIC50 of 7.00. In the case of `CC(C)Sc1nc(O)c(C(=O)Nc2ccc(-c3c[nH]nn3)c(F)c2)c(=O)[nH]1` [Formula (IIw), N-(3-Fluoro-4-(1H-1,2,3-triazol-4-yl)phenyl)-4-hydroxy-2-(isopropylthio)-6-oxo-1,6-dihydropyrimidine-5-carboxamide], the pIC50 is 6.18. For `O=C(Nc1ncc(-c2c[nH]nn2)s1)c1c(O)[nH]c(=O)[nH]c1=O` [Formula (Io), N-(5-(1H-1,2,3-Triazol-4-yl)thiazol-2-yl)-2,4,6-trihydroxypyrimidine-5-carboxamide], the pIC50 was 5.28. Against the preceding compound, the pIC50 is 0.90 log units lower.
